According to patent US4036834A, “Derivatives of 7-(α-hydroxy-substituted pyridyl carboxamido-α p h Δ^3 -cephem-4-carboxylic acid” (Yamanouchi Pharmaceutical Co., Ltd., priority 1974, dated 1977):
In brackets after ≈: the same amount, converted by molar mass. Read-outs that look alike come from different tables or passages of the source.

What was measured:
Type in all cases: cell-based
Proteus vulgaris OXK US = experiment: MIC against Proteus vulgaris OXK US; conditions: Proteus vulgaris OXK US; read-out: MIC
Text: (§1) Now, for illustrating the excellent pharmacological effects of the compounds of this invention, the values of MIC (γ/ml) of the compounds against various bacteria are shown in the following table, the compounds of this invention are shown by example numbers.
1: Proteus vulgaris OXK US

proteus vulgaris OX 19US = experiment: MIC against proteus vulgaris OX 19US; conditions: OX19US
Text: as §1
2. proteus vulgaris OX 19US

[1] = system: proteus mirabilis IFM OM-19; experiment: MIC against proteus mirabilis IFM OM-19; conditions: IFMOM19
Text: as §1
3. proteus mirabilis IFM OM-19

[2] = system: pseudomonas aeruginosa ATCC 8689; experiment: MIC against pseudomonas aeruginosa ATCC 8689; conditions: ATCC8689
Text: as §1
4: pseudomonas aeruginosa ATCC 8689

[3] = system: pseudomonas aeruginosa 99 (Gentamycin resistant); experiment: MIC against pseudomonas aeruginosa 99 (Gentamycin resistant)
Text: as §1
5: pseudomonas aeruginosa 99 (Gentamycin resistant)

[4] = system: Pseudomonas ovalis IAM 1002; experiment: MIC against Pseudomonas ovalis IAM 1002; conditions: Pseudomonas putida, IAM1002
Text: as §1
6: Pseudomonas ovalis IAM 1002

[5] = system: escherichia coli Kauffman 0-1; experiment: MIC against escherichia coli Kauffman 0-1
Text: as §1
7: escherichia coli Kauffman 0-1

[6] = system: Klebsiella pneumoniae ATCC 10031; experiment: MIC against Klebsiella pneumoniae ATCC 10031; conditions: ATCC10031
Text: as §1
8: Klebsiella pneumoniae ATCC 10031

salmonella typhi H901W = experiment: microbe, parasite or virus in culture; conditions: Salmonella enterica
salmonella enteritidis = experiment: MIC against salmonella enteritidis; conditions: Salmonella enterica
Text: as §1
10: salmonella enteritidis

[7] = system: Shigella flexnori 2a 1675; experiment: MIC against Shigella flexnori 2a 1675; conditions: 2A1675
Text: as §1

Shigella sonnei II 37148 = experiment: MIC against Shigella sonnei II 37148; conditions: II37148
Text: as §1

[8] = system: bacillus megatherium 10778; experiment: MIC against bacillus megatherium 10778; conditions: bacillus megatherium 10778; read-out: MIC
Text: as §1

[9] = system: Bacillus subtilis ATCC 6633; experiment: MIC against Bacillus subtilis ATCC 6633; conditions: ATCC6633
Text: as §1
14: Bacillus subtilis ATCC 6633

[10] = system: micrococcus flavus ATCC 10240; experiment: MIC against micrococcus flavus ATCC 10240; conditions: ATCC10240; micrococcus flavus ATCC 10240; read-out: MIC
Text: as §1

[11] = system: staphylococcus aureus 209P; experiment: MIC against staphylococcus aureus 209P
Text: as §1
16: staphylococcus aureus 209P

[12] = system: staphylococcus Shimanishi; experiment: MIC against staphylococcus Shimanishi
Text: as §1
17. staphylococcus Shimanishi

Staphylococcus Onuma = experiment: MIC against Staphylococcus Onuma
Text: as §1

[13] = proteus vulgaris OX 19US, read-out: MIC
[14] = pseudomonas aeruginosa 99 (Gentamycin resistant), read-out: MIC
[15] = Pseudomonas ovalis IAM 1002, read-out: MIC
[16] = Bacillus subtilis ATCC 6633, read-out: MIC
[17] = staphylococcus Shimanishi, read-out: MIC
[18] = pseudomonas aeruginosa ATCC 8689, read-out: MIC
[19] = escherichia coli Kauffman 0-1, read-out: MIC
[20] = salmonella enteritidis, read-out: MIC
[21] = Staphylococcus Onuma, read-out: MIC
[22] = Klebsiella pneumoniae ATCC 10031, read-out: MIC

O=C(O)C1=C(CSc2ccc(S)nn2)CS[C@@H]2[C@H](NC(=O)[C@H](NC(=O)c3cnccc3O)c3ccccc3)C(=O)N12 [Example 1, 7-[D-α-(4-hydroxynicotinoylamido)-α-phenylacetamido]-3-(3-mercaptopyridazin-6-yl)thiomethyl-Δ^3-cephem-4-carboxylic acid]
MIC (Proteus vulgaris OXK US): 0.19 µg/mL (≈ 0.311 µM) | MIC (proteus vulgaris OX 19US; [13]): 0.78 µg/mL (≈ 1.28 µM) | MIC [1]: 0.39 µg/mL (≈ 0.639 µM) | MIC ([2]; Pseudomonas aeruginosa): 100 µg/mL (≈ 164 µM) | MIC [3, 14]: 50 µg/mL (≈ 81.9 µM) | MIC [4, 15]: 25 µg/mL (≈ 40.9 µM) | MIC ([5]; Escherichia coli): 6.25 µg/mL (≈ 10.2 µM) | MIC ([6]; Klebsiella pneumoniae): 6.25 µg/mL (≈ 10.2 µM) | MIC (salmonella typhi H901W): 0.39 µg/mL (≈ 0.639 µM) | MIC (salmonella enteritidis; ENTERITIDIS): 0.39 µg/mL (≈ 0.639 µM) | MIC [7]: 6.25 µg/mL (≈ 10.2 µM) | MIC (Shigella sonnei II 37148): 12.5 µg/mL (≈ 20.5 µM) | MIC [8]: 0.39 µg/mL (≈ 0.639 µM) | MIC [9, 16]: 0.39 µg/mL (≈ 0.639 µM) | MIC [10]: 3.13 µg/mL (≈ 5.13 µM) | MIC ([11]; read-out: MIC): 0.39 µg/mL (≈ 0.639 µM) | MIC [12, 17]: 1.56 µg/mL (≈ 2.55 µM) | MIC (Staphylococcus Onuma; Staphylococcus): 6.25 µg/mL (≈ 10.2 µM)

CSc1nc(S)cc(SCC2=C(C(=O)O)N3C(=O)[C@@H](NC(=O)[C@H](NC(=O)c4cnccc4O)c4ccccc4)[C@H]3SC2)n1 [Example 7, 7-[D-α-(4-hydroxynicotinoylamido)-α-phenylacetamido]-3-(4-mercapto-2-methylthiopyrimidin-6-yl)thiomethyl-Δ^3-cephem-4-carboxylic acid]
MIC (Proteus vulgaris OXK US): 0.78 µg/mL (≈ 1.19 µM) | MIC (proteus vulgaris OX 19US; [13]): 0.39 µg/mL (≈ 0.594 µM) | MIC [1]: 0.78 µg/mL (≈ 1.19 µM) | MIC [2, 18]: 25 µg/mL (≈ 38.1 µM) | MIC ([3]; Pseudomonas aeruginosa): 12.5 µg/mL (≈ 19 µM) | MIC [4]: 12.5 µg/mL (≈ 19 µM) | MIC [5, 19]: 25 µg/mL (≈ 38.1 µM) | MIC ([6]; Klebsiella pneumoniae): 12.5 µg/mL (≈ 19 µM) | MIC (salmonella typhi H901W): 0.78 µg/mL (≈ 1.19 µM) | MIC (salmonella enteritidis; [20]): 0.39 µg/mL (≈ 0.594 µM) | MIC [7]: 12.5 µg/mL (≈ 19 µM) | MIC (Shigella sonnei II 37148): 25 µg/mL (≈ 38.1 µM) | MIC [8]: 0.39 µg/mL (≈ 0.594 µM) | MIC [9, 16]: 0.19 µg/mL (≈ 0.289 µM) | MIC [10]: 0.78 µg/mL (≈ 1.19 µM) | MIC [11]: 0.19 µg/mL (≈ 0.289 µM) | MIC [12, 17]: 0.78 µg/mL (≈ 1.19 µM) | MIC (Staphylococcus Onuma; [21]): 3.13 µg/mL (≈ 4.77 µM)

CC(=O)OCC1=C(C(=O)O)N2C(=O)[C@@H](NC(=O)[C@H](N)c3ccccc3)[C@H]2SC1 [Cephaloglycin, reference compound]
MIC (Proteus vulgaris OXK US): 25 µg/mL (≈ 61.7 µM) | MIC (proteus vulgaris OX 19US; [13]): 100 µg/mL (≈ 247 µM) | MIC [1]: 100 µg/mL (≈ 247 µM) | MIC [2, 18]: > 100 µg/mL | MIC ([3]; Pseudomonas aeruginosa): > 100 µg/mL | MIC [4, 15]: > 100 µg/mL | MIC [5, 19]: 100 µg/mL (≈ 247 µM) | MIC [6, 22]: 25 µg/mL (≈ 61.7 µM) | MIC (salmonella typhi H901W): 3 µg/mL (≈ 7.4 µM) | MIC (salmonella enteritidis; [20]): 3 µg/mL (≈ 7.4 µM) | MIC [7]: 3 µg/mL (≈ 7.4 µM) | MIC (Shigella sonnei II 37148): 10 µg/mL (≈ 24.7 µM) | MIC [8]: 1 µg/mL (≈ 2.47 µM) | MIC [9, 16]: 0.3 µg/mL (≈ 0.74 µM) | MIC [10]: 0.3 µg/mL (≈ 0.74 µM) | MIC ([11]; read-out: MIC): 1 µg/mL (≈ 2.47 µM) | MIC [12, 17]: 3 µg/mL (≈ 7.4 µM) | MIC (Staphylococcus Onuma; [21]): 3 µg/mL (≈ 7.4 µM)

Cc1nnc(SCC2=C(C(=O)O)N3C(=O)C(NC(=O)C(NC(=O)c4cccnc4)c4ccccc4)C3SC2)s1 (centres unmarked) [Example C-2, reference compound]
MIC (Proteus vulgaris OXK US): 6.25 µg/mL (≈ 10.7 µM) | MIC [1]: 25 µg/mL (≈ 42.9 µM) | MIC [2, 18]: > 100 µg/mL | MIC [3, 14]: > 100 µg/mL | MIC [4, 15]: > 100 µg/mL | MIC [5, 19]: 100 µg/mL (≈ 172 µM) | MIC [6, 22]: 12.5 µg/mL (≈ 21.5 µM) | MIC (salmonella typhi H901W): > 100 µg/mL | MIC [7]: 50 µg/mL (≈ 85.8 µM) | MIC (Shigella sonnei II 37148): 100 µg/mL (≈ 172 µM) | MIC [8]: 3.13 µg/mL (≈ 5.37 µM) | MIC [9, 16]: 1.56 µg/mL (≈ 2.68 µM) | MIC [10]: 1.56 µg/mL (≈ 2.68 µM)

CC(=O)Nc1nc(S)nc(SCC2=C(C(=O)O)N3C(=O)[C@@H](NC(=O)[C@H](NC(=O)c4cnccc4O)c4ccccc4)[C@H]3SC2)n1 [Example 4, 7-[D-α-(4-hydroxynicotinoylamido)-α-phenylacetamido]-3-(4-mercapto-6-acetylamino-1,3,5-triazin-2-yl)thiomethyl-Δ^3-cephem-4-carboxylic acid]
MIC (Proteus vulgaris OXK US): 0.19 µg/mL (≈ 0.284 µM) | MIC (proteus vulgaris OX 19US; [13]): 6.25 µg/mL (≈ 9.35 µM) | MIC [1]: 0.39 µg/mL (≈ 0.583 µM) | MIC [2, 18]: 50 µg/mL (≈ 74.8 µM) | MIC [3, 14]: 50 µg/mL (≈ 74.8 µM) | MIC [4, 15]: 50 µg/mL (≈ 74.8 µM) | MIC [5, 19]: 6.25 µg/mL (≈ 9.35 µM) | MIC ([6]; Klebsiella pneumoniae): 12.5 µg/mL (≈ 18.7 µM) | MIC (salmonella typhi H901W): 0.39 µg/mL (≈ 0.583 µM) | MIC (salmonella enteritidis; [20]): 0.78 µg/mL (≈ 1.17 µM) | MIC [7]: 12.5 µg/mL (≈ 18.7 µM) | MIC (Shigella sonnei II 37148): 12.5 µg/mL (≈ 18.7 µM) | MIC [8]: 0.39 µg/mL (≈ 0.583 µM) | MIC [9, 16]: 0.78 µg/mL (≈ 1.17 µM) | MIC [10]: 6.25 µg/mL (≈ 9.35 µM) | MIC ([11]; read-out: MIC): 1.56 µg/mL (≈ 2.33 µM) | MIC [12, 17]: 6.25 µg/mL (≈ 9.35 µM) | MIC (Staphylococcus Onuma; [21]): 6.25 µg/mL (≈ 9.35 µM)

CC(=O)OCC1=C(C(=O)O)N2C(=O)[C@@H](NC(=O)Cc3cccs3)[C@H]2SC1 [Cephalothin, reference compound]
MIC (proteus vulgaris OX 19US; Proteus vulgaris): 12.5 µg/mL (≈ 31.5 µM) | MIC ([2]; Pseudomonas aeruginosa): > 100 µg/mL | MIC ([3]; Pseudomonas aeruginosa): > 100 µg/mL | MIC ([5]; Escherichia coli): 3.13 µg/mL (≈ 7.9 µM) | MIC ([6]; Klebsiella pneumoniae): 0.78 µg/mL (≈ 1.97 µM) | MIC (salmonella typhi H901W): 1.56 µg/mL (≈ 3.93 µM) | MIC (salmonella enteritidis; ENTERITIDIS): 0.39 µg/mL (≈ 0.984 µM) | MIC [7]: 6.25 µg/mL (≈ 15.8 µM) | MIC (Shigella sonnei II 37148): 6.25 µg/mL (≈ 15.8 µM) | MIC ([9]; Bacillus subtilis): < 0.09 µg/mL | MIC [11]: 0.19 µg/mL (≈ 0.479 µM) | MIC ([12]; Staphylococcus): 0.39 µg/mL (≈ 0.984 µM) | MIC (Staphylococcus Onuma; Staphylococcus): 0.39 µg/mL (≈ 0.984 µM)
